{"source": "paper PMC7412550", "about": "(Viruses, 2020)", "key": {"in vitro": {"assay": "in vitro", "conditions": "human"}, "HIV-1 NL4.3 wt": {"tested_on": "HIV-1 NL4.3 wt", "conditions": "for SI (selectivity index): ratio between the CC50 and the EC50; for EC50: read-out: HIV-1 wt MT EC50, HIV-1 NL4.3 wt, MT4 cells, MTT, 5 days post infection, mean and SD of three experiments"}, "[1]": {"molecular_target": "HIV-1 RT-associated RDDP activity (wt RT) (Human immunodeficiency virus type 1 group M subtype B, UniProt P04585)", "assay": "HIV-1 RNA-dependent DNA polymerase (RDDP) activity", "format": "biochemical"}, "VSV/HIV-1GFP": {"tested_on": "VSV/HIV-1GFP", "format": "cell-based"}, "[2]": {"molecular_target": "HIV-1 RT-associated RNase H (wt RT) (Human immunodeficiency virus type 1 group M subtype B, UniProt P04585)", "assay": "HIV-1 DNA polymerase-independent RNase H activity, wt RT"}, "HIV-1 IN": {"tested_on": "HIV-1 IN", "parameters": "method as in ref 30 = [30]", "conditions": "enzymatic assay; cited from earlier work"}, "HIV-1 RT RNase H": {"molecular_target": "HIV-1 RT RNase H", "conditions": "Table S2; biologic data previously reported; cited from earlier work"}, "MT4 cells": {"tested_on": "MT4 cells", "conditions": "read-out: MT4 CC50; non-infected MT4 cells, MTT"}, "Q475A RT RNase H": {"molecular_target": "Q475A RT RNase H (Human immunodeficiency virus type 1 group M subtype B, UniProt P04585, Q1062A)", "assay": "HIV-1 DNA polymerase-independent RNase H activity, Q475A RT", "conditions": "RNase H function; p-value = 0.0008"}, "R557A RT RNase H [3]": {"molecular_target": "T1, R557A RT RNase H (Human immunodeficiency virus type 1 group M subtype B, UniProt P04585, R1144A)", "assay": "HIV-1 DNA polymerase-independent RNase H activity, R557A RT", "conditions": "RNase H function; p-value 0.9682"}, "R448A RT RNase H [4]": {"molecular_target": "T2, R448A RT RNase H (Human immunodeficiency virus type 1 group M subtype B, UniProt P04585, R1035A)", "parameters": "method as in ref 26,27 = [26]", "conditions": "RNase H function; cited from earlier work"}, "R448A RT RNase H [5]": {"molecular_target": "T2, R448A RT RNase H", "assay": "HIV-1 DNA polymerase-independent RNase H activity, R448A RT", "conditions": "RNase H function; p-value 0.5545"}, "R557A RT RNase H [6]": {"molecular_target": "T1, R557A RT RNase H", "parameters": "method as in ref 26,27 = [26]", "conditions": "RNase H function; cited from earlier work"}}}
{"smiles": "Cc1cn([C@H]2C[C@H](N=[N+]=[N-])[C@@H](CO)O2)c(=O)[nH]c1=O", "note": "[AZT, azidothymidine]", "values": [{"measurement": "CC50", "setting": "in vitro", "value": "> 3.7", "unit": "µM"}, {"measurement": "SI (selectivity index)", "setting": "HIV-1 NL4.3 wt", "value": ">500"}]}
{"smiles": "O=C(N/N=C/c1ccccc1O)c1cc(O)c(O)c(O)c1", "note": "[Compound 13, N’-(2-hydroxy-benzylidene)-3,4,5-trihydroxybenzoylhydrazone]", "values": [{"measurement": "inhibitory effect on RDDP activity at 25 μM", "setting": "[1]; 25 μM", "value": "no inhibitory effect"}, {"measurement": "fold less potent against RT polymerase activity than RNase H function", "setting": "[1]; RDDP vs RNase H", "value": "> 20", "unit": "fold"}, {"measurement": "IC50", "setting": "[1]; wt RT, inhibitor and substrate added before the enzyme (competition)", "value": 81, "unit": "µM"}, {"measurement": "time after infection at which activity is lost (time-of-addition)", "setting": "VSV/HIV-1GFP", "value": 6, "unit": "h"}, {"measurement": "CC50", "setting": "in vitro", "value": "61.5 ± 2.2", "unit": "µM"}, {"measurement": "SI (selectivity index)", "setting": "HIV-1 NL4.3 wt", "value": 6.1}, {"measurement": "EC50", "setting": "HIV-1 NL4.3 wt", "value": "10.1 ± 4.7", "unit": "µM"}, {"measurement": "IC50", "setting": "[2]; RNase H IC50 against wt enzyme (site-directed mutagenesis study, Figure 4), determined in parallel with mutants", "value": 6.9, "unit": "µM"}, {"measurement": "IC50", "setting": "[2]; RT-associated RNase H activity IC50 (comparative inhibition, Figure 2B), inhibitor and substrate added before the enzyme (competition)", "value": 3.6, "unit": "µM"}, {"measurement": "activity against HIV-1 IN", "setting": "HIV-1 IN", "value": "inactivity"}, {"measurement": "IC50", "setting": "HIV-1 RT RNase H", "value": "2320 ± 750", "unit": "nM"}]}
{"smiles": "O=C(N/N=C/c1cc(O)c(O)cc1O)c1cc(O)c(O)c(O)c1", "note": "[Compound 21]", "values": [{"measurement": "time-of-addition behaviour", "setting": "VSV/HIV-1GFP", "value": "retained its potency over time"}, {"measurement": "CC50", "setting": "in vitro", "value": "31.8 ± 0.4", "unit": "µM"}, {"measurement": "SI (selectivity index)", "setting": "HIV-1 NL4.3 wt", "value": 6.4}, {"measurement": "activity against HIV-1 IN", "setting": "HIV-1 IN", "value": "inhibited"}, {"measurement": "IC50", "setting": "HIV-1 RT RNase H", "value": "620 ± 100", "unit": "nM"}]}
{"smiles": "O=C1Nc2ccc(Cl)cc2[C@@](C#CC2CC2)(C(F)(F)F)O1", "note": "[EFV, efavirenz]", "values": [{"measurement": "CC50", "setting": "in vitro", "value": "> 0.31", "unit": "µM"}, {"measurement": "SI (selectivity index)", "setting": "HIV-1 NL4.3 wt", "value": ">6.25"}]}
{"smiles": "Cc1ccnc2c1NC(=O)c1cccnc1N2C1CC1", "note": "[NVP, nevirapine]", "values": [{"measurement": "CC50", "setting": "in vitro", "value": "> 3.7", "unit": "µM"}, {"measurement": "SI (selectivity index)", "setting": "HIV-1 NL4.3 wt", "value": ">5.5"}]}
{"smiles": "Cc1nnc(C(=O)NC(C)(C)c2nc(C(=O)NCc3ccc(F)cc3)c(O)c(=O)n2C)o1", "note": "[RAL, raltegravir]", "values": [{"measurement": "time-of-addition behaviour", "setting": "VSV/HIV-1GFP", "value": "retained its potency over time"}, {"measurement": "CC50", "setting": "in vitro", "value": "> 2.25", "unit": "µM"}]}
{"smiles": "CCOC(=O)C(=O)CC(=O)/C=C/c1cccn1Cc1ccccc1Cl", "note": "[RDS1759]", "values": [{"measurement": "CC50", "setting": "MT4 cells", "value": "39 ± 4.4", "unit": "µM"}, {"measurement": "potency of inhibition on Q475A RT compared to wt RT", "setting": "Q475A RT RNase H", "value": "significantly lost its potency"}, {"measurement": "potency of inhibition on R557A RT compared to wt RT", "setting": "R557A RT RNase H [3]", "value": "not significantly affected"}, {"measurement": "activity against R448A HIV-1 RT", "setting": "R448A RT RNase H [4]", "value": "fully active"}, {"measurement": "SI (selectivity index)", "setting": "HIV-1 NL4.3 wt", "value": 4.7}, {"measurement": "EC50", "setting": "HIV-1 NL4.3 wt", "value": "8.2 ± 0.9", "unit": "µM"}, {"measurement": "potency of inhibition on R448A RT compared to wt RT", "setting": "R448A RT RNase H [5]", "value": "not significantly affected"}, {"measurement": "activity against R557A HIV-1 RT", "setting": "R557A RT RNase H [6]", "value": "fully active"}]}
{"smiles": "CC(C)c1ccc(O)c(=O)c(O)c1", "note": "[beta-thujaplicinol]", "values": [{"measurement": "activity against R448A HIV-1 RT", "setting": "R448A RT RNase H [4]", "value": "fully active"}, {"measurement": "activity against R557A HIV-1 RT", "setting": "R557A RT RNase H [6]", "value": "fully active"}]}
